{"source": "ChEMBL document CHEMBL2401642", "about": "“Sphingosine kinase 2 inhibitor SG-12 induces apoptosis via phosphorylation by sphingosine kinase 2” (2013)", "key": {"[1]": {"biological_target": "Sphingosine kinase 1 (Mus musculus) (UniProt Q8CI15)", "sequence (Q8CI15 whole entry)": "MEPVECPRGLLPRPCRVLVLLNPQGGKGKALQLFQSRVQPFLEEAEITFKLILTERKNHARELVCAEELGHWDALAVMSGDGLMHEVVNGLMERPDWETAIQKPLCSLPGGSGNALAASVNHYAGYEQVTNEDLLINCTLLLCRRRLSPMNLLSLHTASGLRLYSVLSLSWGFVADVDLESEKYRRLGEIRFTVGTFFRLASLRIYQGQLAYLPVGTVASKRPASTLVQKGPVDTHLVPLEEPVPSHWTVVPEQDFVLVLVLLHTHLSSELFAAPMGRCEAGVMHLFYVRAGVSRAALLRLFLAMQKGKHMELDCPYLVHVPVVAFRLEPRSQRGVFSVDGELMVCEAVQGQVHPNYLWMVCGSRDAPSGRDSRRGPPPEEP", "experiment": "Inhibition of mouse SPHK1 in mouse A20/2J cells using [3-3H]sphingosine as substrate assessed as [3H]S1P formation at 2 to 4 uM incubated for 5 mins prior to substrate addition measured after 5 mins", "assay_type": "cell-based"}, "[2]": {"biological_target": "Sphingosine kinase 1 (Mus musculus) (UniProt Q8CI15)", "experiment": "Activity at mouse SPHK1 transfected in mouse A20/2J cell lysates assessed as compound phosphorylation at 10 uM after 30 mins by autoradiography in presence of [gamma-32P]ATP", "assay_type": "cell-free"}, "[3]": {"biological_target": "T1, Sphingosine kinase 2 (Mus musculus) (UniProt Q9JIA7)", "T1 sequence (whole entry)": "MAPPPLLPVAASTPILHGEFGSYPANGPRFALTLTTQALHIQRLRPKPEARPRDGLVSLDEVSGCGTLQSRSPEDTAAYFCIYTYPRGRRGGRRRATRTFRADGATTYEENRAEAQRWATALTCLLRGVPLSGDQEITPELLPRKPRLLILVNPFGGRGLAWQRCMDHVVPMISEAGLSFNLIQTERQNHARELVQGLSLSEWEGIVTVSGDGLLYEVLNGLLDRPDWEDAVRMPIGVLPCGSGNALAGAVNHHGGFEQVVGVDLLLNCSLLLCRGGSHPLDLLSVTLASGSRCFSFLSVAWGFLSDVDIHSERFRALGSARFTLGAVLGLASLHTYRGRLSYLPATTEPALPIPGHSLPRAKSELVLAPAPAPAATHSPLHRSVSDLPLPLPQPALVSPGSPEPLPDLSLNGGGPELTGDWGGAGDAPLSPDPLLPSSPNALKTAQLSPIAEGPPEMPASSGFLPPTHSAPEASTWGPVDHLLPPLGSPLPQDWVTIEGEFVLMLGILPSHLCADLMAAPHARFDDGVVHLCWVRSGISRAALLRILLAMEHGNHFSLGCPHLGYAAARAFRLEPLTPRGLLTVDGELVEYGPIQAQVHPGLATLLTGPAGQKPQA", "experiment": "Activity at mouse SPHK2 transfected in mouse A20/2J cell lysates assessed as compound phosphorylation at 10 uM after 30 mins by autoradiography in presence of [gamma-32P]ATP", "assay_type": "cell-free"}, "[4]": {"biological_target": "T1, Sphingosine kinase 2 (Mus musculus)", "experiment": "Inhibition of mouse SPHK2 in mouse A20/2J cells using [3-3H]sphingosine as substrate assessed as [3H]S1P formation at 2 to 4 uM incubated for 5 mins prior to substrate addition measured after 5 mins", "assay_type": "cell-based"}, "A20/2J [5]": {"system": "A20/2J", "experiment": "Induction of apoptosis in mouse SPHK1-transfected mouse A20/2J cells assessed as increase in LDH release at 10 uM up to 10 hrs", "assay_type": "functional, cell-based"}, "[6]": {"experiment": "Induction of apoptosis in mouse N-terminal FLAG-tagged SPHK2-transfected mouse A20/2J cells at 10 uM after 9 hrs by LDH release assay", "assay_type": "functional"}, "[7]": {"biological_target": "T1, Sphingosine kinase 2 (Mus musculus)", "experiment": "Inhibition of mouse SPHK2 in mouse A20/2J cells using [3-3H]sphingosine as substrate assessed as [3H]S1P formation at 8 uM incubated for 5 mins prior to substrate addition measured after 5 mins", "assay_type": "cell-based"}, "A20/2J [8]": {"system": "A20/2J", "experiment": "Induction of apoptosis in mouse SPHK2-transfected mouse A20/2J cells assessed as chromatin condensation at 8 uM after 18 hrs by transmission electron microscopy", "assay_type": "functional, cell-based"}, "[9]": {"experiment": "Induction of apoptosis in mouse SPHK1-transfected mouse A20/2J cells assessed as activation of caspase 3 at 10 uM after 3 hrs by flow cytometric analysis", "assay_type": "functional"}, "[10]": {"experiment": "Induction of apoptosis in mouse SPHK2 R293E/R294E mutant-transfected mouse A20/2J cells at 10 uM after 9 hrs by LDH release assay", "assay_type": "functional"}, "A20/2J [11]": {"system": "A20/2J", "experiment": "Induction of apoptosis in mouse SPHK2-transfected mouse A20/2J cells assessed as increase in LDH release after 8 hrs", "assay_type": "functional, cell-based"}, "[12]": {"experiment": "Induction of apoptosis in mouse A20/2J cells assessed as late apoptotic cells at 8 uM after 6 hrs by FITC-annexin V/propidium iodide staining-based flow cytometric analysis (reference value: 1.39%)", "assay_type": "functional"}, "A20/2J [13]": {"system": "A20/2J", "experiment": "Induction of apoptosis in mouse SPHK2-transfected mouse A20/2J cells assessed as increase in LDH release at 50 uM", "assay_type": "functional, cell-based"}, "[14]": {"biological_target": "Sphingosine kinase 1 (Mus musculus) (UniProt Q8CI15)", "experiment": "Inhibition of mouse SPHK1 in mouse A20/2J cells using [3-3H]sphingosine as substrate assessed as [3H]S1P formation at 8 uM incubated for 5 mins prior to substrate addition measured after 5 mins", "assay_type": "cell-based"}, "[15]": {"experiment": "Induction of apoptosis in mouse N-terminal FLAG-tagged SPHK1-transfected mouse A20/2J cells at 10 uM after 9 hrs by LDH release assay", "assay_type": "functional"}, "[16]": {"experiment": "Induction of apoptosis in mouse A20/2J cells assessed as early apoptotic cells at 8 uM after 6 hrs by FITC-annexin V/propidium iodide staining-based flow cytometric analysis (reference value: 2.58%)", "assay_type": "functional"}, "A20/2J [17]": {"system": "A20/2J", "experiment": "Induction of apoptosis in mouse SPHK2-transfected mouse A20/2J cells assessed as increase in LDH release at 10 uM after 6 hrs", "assay_type": "functional, cell-based"}, "A20/2J [18]": {"system": "A20/2J", "experiment": "Induction of apoptosis in mouse A20/2J cells assessed as increase in LDH release at 10 uM up to 10 hrs", "assay_type": "functional, cell-based"}, "A20/2J [19]": {"system": "A20/2J", "experiment": "Induction of apoptosis in mouse SPHK2-transfected mouse A20/2J cells assessed as increase in LDH release at 10 uM", "assay_type": "functional, cell-based", "details": "TDE = time-dependent effect"}, "[20]": {"experiment": "Induction of apoptosis in mouse SPHK2-transfected mouse A20/2J cells assessed as early apoptotic cells at 8 uM after 6 hrs by FITC-annexin V/propidium iodide staining-based flow cytometric analysis (reference value: 2.48%)", "assay_type": "functional"}, "[21]": {"experiment": "Induction of apoptosis in mouse A20/2J cells assessed as viable cells at 8 uM after 6 hrs by FITC-annexin V/propidium iodide staining-based flow cytometric analysis (reference value: 95.9%)", "assay_type": "functional", "details": "read-out: Activity"}, "[22]": {"experiment": "Induction of apoptosis in mouse SPHK2-transfected mouse A20/2J cells assessed as activation of caspase 3 at 10 uM after 3 hrs by flow cytometric analysis", "assay_type": "functional"}, "[23]": {"experiment": "Induction of apoptosis in mouse SPHK2-transfected mouse A20/2J cells assessed as late apoptotic cells at 8 uM after 6 hrs by FITC-annexin V/propidium iodide staining-based flow cytometric analysis (reference value: 1.12%)", "assay_type": "functional"}, "A20/2J [24]": {"system": "A20/2J", "experiment": "Induction of apoptosis in mouse SPHK2-transfected mouse A20/2J cells at 8 uM after 6 hrs by flow cytometric analysis in presence of pan-caspase inhibitor z-VAD-fmk", "assay_type": "functional, cell-based"}, "[25]": {"experiment": "Induction of apoptosis in mouse A20/2J cells assessed as activation of caspase 3 at 10 uM after 3 hrs by flow cytometric analysis", "assay_type": "functional"}, "[26]": {"experiment": "Induction of apoptosis in mouse SPHK2 G213D mutant-transfected mouse A20/2J cells at 10 uM after 9 hrs by LDH release assay", "assay_type": "functional"}, "A20/2J [27]": {"system": "A20/2J", "experiment": "Induction of apoptosis in mouse SPHK1-transfected mouse A20/2J cells assessed as increase in LDH release at 50 uM", "assay_type": "functional, cell-based"}, "[28]": {"experiment": "Induction of apoptosis in mouse SPHK2 L219A mutant-transfected mouse A20/2J cells at 10 uM after 9 hrs by LDH release assay", "assay_type": "functional"}, "[29]": {"experiment": "Induction of apoptosis in mouse SPHK2-transfected mouse A20/2J cells assessed as viable cells at 8 uM after 6 hrs by FITC-annexin V/propidium iodide staining-based flow cytometric analysis (reference value: 96.1%)", "assay_type": "functional", "details": "read-out: Activity"}}, "note": "The source made the active and inactive calls. The calls are words filed in the database; no cut-off is given here."}
{"smiles": "CCCCCCCCc1ccc(C[C@H](O)[C@@H](N)CO)cc1", "values": [{"measurement": "inhibition", "setting": "[1]", "result": "inactive"}, {"measurement": "Activity", "setting": "[2]", "result": "Active"}, {"measurement": "Activity", "setting": "[3]", "result": "Active"}, {"measurement": "inhibition", "setting": "[4]", "result": "inactive"}]}
{"smiles": "CCCCCCCCc1ccc(C[C@@H](O)[C@@H](N)CO)cc1", "values": [{"measurement": "Activity", "setting": "A20/2J [5]", "result": "Active"}, {"measurement": "Activity", "setting": "[6]", "result": 18.4, "unit": "%"}, {"measurement": "inhibition", "setting": "[7]", "result": 46, "unit": "%"}, {"measurement": "Activity", "setting": "A20/2J [8]", "result": "Active"}, {"measurement": "Activity", "setting": "[9]", "result": 6.4, "unit": "%"}, {"measurement": "Activity", "setting": "[10]", "result": 13.2, "unit": "%"}, {"measurement": "Activity", "setting": "A20/2J [11]", "result": "Dose-dependent effect"}, {"measurement": "inhibition", "setting": "[1]", "result": "Active"}, {"measurement": "Activity", "setting": "[12]", "result": 1.62, "unit": "%"}, {"measurement": "Activity", "setting": "[2]", "result": "Active"}, {"measurement": "Activity", "setting": "A20/2J [13]", "result": "Active"}, {"measurement": "inhibition", "setting": "[14]", "result": 8, "unit": "%"}, {"measurement": "Activity", "setting": "[15]", "result": 17.8, "unit": "%"}, {"measurement": "Activity", "setting": "[16]", "result": 5.06, "unit": "%"}, {"measurement": "Activity", "setting": "A20/2J [17]", "result": "Active"}, {"measurement": "Activity", "setting": "A20/2J [18]", "result": "Active"}, {"measurement": "Activity", "setting": "[3]", "result": "Active"}, {"measurement": "Activity", "setting": "A20/2J [19]", "result": "tde"}, {"measurement": "Activity", "setting": "[20]", "result": 7.86, "unit": "%"}, {"measurement": "viability at 8 µM", "setting": "[21]", "result": 93.2, "unit": "%"}, {"measurement": "Activity", "setting": "[22]", "result": 31.8, "unit": "%"}, {"measurement": "Activity", "setting": "[23]", "result": 19, "unit": "%"}, {"measurement": "Activity", "setting": "A20/2J [24]", "result": "Active"}, {"measurement": "Activity", "setting": "[25]", "result": 9.6, "unit": "%"}, {"measurement": "Activity", "setting": "[26]", "result": 9.8, "unit": "%"}, {"measurement": "inhibition", "setting": "[4]", "result": "Active"}, {"measurement": "Activity", "setting": "A20/2J [27]", "result": "Active"}, {"measurement": "Activity", "setting": "[28]", "result": 20.3, "unit": "%"}, {"measurement": "viability at 8 µM", "setting": "[29]", "result": 70.1, "unit": "%"}]}
